Experimental data as given in patent US11911386B2, “Methods of treating B-cell proliferative disorder” (BeiGene Switzerland GmbH, priority 2022, dated 2024).
Several values for one entry are separate records, joined by “and”; a condition that tells them apart may be missing. Equal values may be shown once.

What was measured:
[1] = Phase 2 (NCT04116437): recurrence and change in severity of ibrutinib/acalabrutinib intolerance events on zanubrutinib; format: in vivo, human
From the text: The primary endpoints were the recurrence and the change in severity of ibrutinib and acalabrutinib intolerance events compared with corresponding treatment-emergent adverse events within each patient. In this document, the term “adverse event” refers to a “treatment-emergent adverse event” unless otherwise stated. Hereafter, the full “treatment-emergent adverse event” was not used.
Intolerance was defined as an unacceptable toxicity such that treatment should be discontinued per investigator opinion despite optimal supportive care.
If while on zanubrutinib a patient experienced the same adverse event that led to their intolerance to ibrutinib, the patient was said to experience a recurrence of an ibrutinib intolerant event. […] Otherwise, the severity was said to be the same. For acalabrutinib intolerant events, recurrence and change in severity were defined similarly.
Primary endpoint was the recurrence and change in severity of intolerance events per protocol.
The study design comprised two cohorts. […] Patients were not allowed to switch schedule during the study.

[2] = test system: previously treated B-cell malignancies (CLL/SLL, WM, MCL, MZL); test: Phase 2 (NCT04116437): investigator-assessed efficacy (ORR, DCR, DOR, PFS, OS); format: in vivo, human; settings: for Months to BOR, median: patients who responded
Method: PFS and patient-reported outcomes were assessed as secondary efficacy endpoints.
The study's secondary endpoints were: • ORR, defined as the proportion of patients achieving a best overall response (BOR) of CR, CRi, nodular partial response, partial response (PR), or partial response with lymphocytosis (PR-L) in patients with CLL; CR or PR in patients with SLL, MCL, or MZL; and CR, very good partial response, PR, or minor response (MR) in patients with WM before initiation of subsequent antineoplastic therapy. • DCR, defined as the proportion of patients who attain a BOR of stable disease or better before initiation of subsequent antineoplastic therapy. • Duration of response (DOR), defined as time from […] to date of first documented disease progression or death, whichever occurs first. • PFS, defined as time from first dose date to date of first documented disease progression or death, whichever occurs first. • Time to first response, defined as time from first dose to date of first qualifying response. For example, for a patient who attained a PR-L followed by PR for subsequent assessments, time to first response was the time from first dose to date of first PR-L. • Time to BOR, defined as time from first dose to date of best of overall response.
A patient's BOR was the best response recorded throughout the study prior to initiation of any new anticancer therapy and data cutoff. In some cases, the BOR could only be stable disease (e.g., if the patient was in CR at study entry) because patients were not required to progress prior to entering the study. • ORR was the proportion of patients who attained a BOR of: • PR-L or better (CR, CRi, nodular partial response, PR, PR-L) in patients with CLL; • PR or better (CR, PR) in patients with SLL, MCL, and MZL; • MR or better (CR, very good partial response, PR, MR) in patients with WM.
Per the Safety Analysis Set, patients without postbaseline disease assessment were considered non-responders. DCR was summarized with 95% exact confidence intervals. A sensitivity analysis of DCR was conducted in patients in the Efficacy Evaluable Set; patients who died or discontinued study prior to their first disease assessment due to adverse events were classified as not achieving disease control. An additional sensitivity analysis of DCR excluded patients with low disease burden, as defined above.
The PFS distribution and its related metrics such as median PFS and landmark rates were estimated using the Kaplan-Meier method with censoring rules as defined in Table 29.
Zanubrutinib capsules were taken orally with water and with or without food. Imaging and laboratory assessments at study entry were considered baseline for response assessment; patients were not required to meet criteria for initiation of treatment at study entry.

[3] = Cohort 1 (prior ibrutinib), n = 57
[4] = Cohort 2 (prior acalabrutinib + ibrutinib), n = 7
[5] = Efficacy Evaluable Set, 68 patients

With `C=CC(=O)N1CCC([C@@H]2CCNc3c(C(N)=O)c(-c4ccc(Oc5ccccc5)cc4)nn32)CC1` [zanubrutinib, (S)-7-(1-acryloylpiperidin-4-yl)-2-(4-phenoxyphenyl)-4,5,6,7-tetrahydropyrazolo[1,5-a]pyrimidine-3-carboxamide] the “Patients with acalabrutinib-intolerance event recurrence who discontinued zanubrutinib” value ([1]; 3 patients) was 66.7%, the “Recurring acalabrutinib-intolerance events at lower severity” value ([1]; 3 recurring events) was 33.3% and 33.0% and the “Recurring acalabrutinib-intolerance events at same severity” value ([1]; 3 recurring events) was 66.6% and 66.7%. The “Grade 3 acalabrutinib-intolerance events that recurred” value ([1]; 4 grade 3 events) was 25.0%, the “Patients without recurrence of acalabrutinib-intolerance events” value ([1]; 10 patients) was 70.0% and the “Recurring grade 3 ibrutinib-intolerance events at lower severity” value ([1]; 13 events) was 92.3%. The “Recurring grade 3 ibrutinib-intolerance events at same severity” value ([1]; 13 events) was 7.7%, the “Acalabrutinib-intolerance events that did not recur” value ([1]; 18 events) was 83.3% and the “Acalabrutinib-intolerance events that recurred: arthralgia” value ([1]; 18 events) was 5.6%. For the same compound, the “Acalabrutinib-intolerance events that recurred: myalgia” value ([1]; 18 events) was 11.1%, the “Patients with recurrent ibrutinib-intolerance event who discontinued zanubrutinib” value ([1]; 25 patients) was 24.0% and the “Recurring ibrutinib-intolerance events at lower severity” value ([1]; 34 recurring events) was 79.4%. The “Recurring ibrutinib-intolerance events at same severity” value ([1]; 34 recurring events) was 20.6%, the “Grade 3 ibrutinib-intolerance events that recurred” value ([1]; 38 grade 3 events) was 34.2% and the “Patients without recurrence of ibrutinib-intolerance event” value ([1]; 62 patients) was 59.7%. The “Ibrutinib-intolerance events that did not recur” value ([1]; 115 events) was 70.4%, the “Intolerance events that did not recur” value ([1]; 141 intolerance events) was 68.1% and the “Patients with reoccurrence of previously intolerant adverse event(s)” value ([1]; all patients) was 44.4%. For the same compound, the “Patients without any recurrence of intolerance event(s)” value ([1]; all patients (clinical study report cut-off)) was 56.6%, the “Median time to first recurrence of ibrutinib-intolerance event” value ([1]; in vivo) was 61 days and the DCR ([2]; 160 mg bid group) was 95.0%. The ORR ([2]; 160 mg bid group) was 70.0%, the DCR ([2]; 320 mg qd group) was 91.7% and the ORR ([2]; 320 mg qd group) was 54.2%. The “BOR PD” value ([2]; Cohort 1) was 1 (1.8) n (%), the “BOR PR-L or better” value ([2]; Cohort 1) was 36 (63.2) n (%) and the “BOR SD” value ([2]; Cohort 1) was 18 (31.6) n (%). For the same compound, the “Months to first OR, median” value ([2]; Cohort 1) was 2.92 months, the “DCR (SD or better)” value [2, 3] was “(94.7, 85.4-98.9) %” and the “ORR (better than SD)” value [2, 3] was “(63.2, 49.3-75.6) %”. The “Months to BOR, median” value ([2]; Cohort 1) was 5.5 months, the “BOR PD” value ([2]; Cohort 2) was 1 (14.3) n (%) and the “BOR PR-L or better” value ([2]; Cohort 2) was 5 (71.4) n (%). For the same compound, the “BOR SD” value ([2]; Cohort 2) was 1 (14.3) n (%), the “Months to first OR, median” value ([2]; Cohort 2) was 3.02 months and the “DCR (SD or better)” value [2, 4] was “(85.7, 42.1-99.6) %”. The “ORR (better than SD)” value [2, 4] was “(71.4, 29.0-96.3) %”, the “Months to BOR, median” value ([2]; Cohort 2) was 7.9 months and the “BOR better than stable disease (ORR)” value [2, 5] was 67.6%. For the same compound, the “BOR of PR” value [2, 5] was 66.2%, the “BOR of stable disease or better (DCR)” value [2, 5] was 95.6% and the “BOR PD” value ([2]; Total) was 3.1 n (%) and 2 (3.1) n (%). The “BOR PR-L or better” value ([2]; Total) was 41 (64.1) n (%), the “BOR SD” value ([2]; Total) was 29.7 n (%) and 19 (29.7) n (%) and the “Months to first OR, median” value ([2]; Total) was 2.96 months. For the same compound, the “Months to BOR, median” value ([2]; Total) was 5.6 months, the “Median DOR” value ([2]; additional analysis) was “not reached” and the “Median PFS” value ([2]; additional analysis) was “not reached”. For the same compound, the “18-month event-free PFS rate” value ([2]; additional analysis, 67 patients) was 83.8%, the “Chance of being alive after 24 months” value ([2]; all patients) was 89.3% and the “Estimated probability of responding for at least 12 months” value ([2]; all patients) was 91.8%. For the same compound, the “Median DOR” value ([2]; all patients) was “not reached”, the ORR ([2]; excluding eight patients ineligible for PR due to low baseline disease burden) was 73.2% and the “12-month event-free DOR rate” value ([2]; in vivo) was 95.0%. For the same compound, the “Median time to first response (better than SD)” value ([2]; in vivo) was 3.0 months, the “Median PFS” value ([2]; overall) was “not reached” and the “PFS event-free rate at 18 months” value ([2]; overall (clinical study report cut-off)) was 80.4%. The “Estimated probability of responding for at least 12 months” value ([2]; patients with WM) was 100%, the “PFS event-free rate at 18 months” value ([2]; patients with WM) was 100% and the “BOR better than stable disease” value ([2]; patients with WM, 11 patients) was 90.9%. For the same compound, the “BOR of stable disease or better” value ([2]; patients with WM, 11 patients) was 100% and the “Very good partial response” value ([2]; patients with WM, 11 patients) was 45.5%.
